{
  "source": "patent US9023767B2",
  "about": "“γ-Secretase substrates and methods of use” (Memorial Sloan-Kettering Cancer Center, priority 2009, dated 2015)",
  "key": {"γ-secretase [1]": {"biological_target": "γ-secretase (Homo sapiens (Human), UniProt P49768+Q92542)", "experiment": "Photoaffinity labeling of γ-secretase in HeLa membrane by Aβ17-23BPA20-biotin", "format": "binding", "conditions": "inhibitor at 2 μM", "procedure": "FIG. 4. […] Various concentrations of inhibitor were incubated with APP substrate (S4) or Notch peptide substrate containing the C-terminal biotinylated transmembrane domain of Notch1 and HeLa cell membrane in the presence of 0.25% CHAPSO. Aβ40 was detected by G2-10 antibody. The cleaved Notch product was detected by Val1744 antibody that specifically recognizes the cleaved product between Gly1743 and Val1744. Activities are expressed as percentage relative to reading that was produced in DMSO control. […] Various concentrations of S4 substrate were incubated with HeLa membrane in fixed concentrations of inhibitor as indicated. The double reciprocal velocity (1/v) and substrate concentrations (1/S) are plotted to determine the type of inhibition. […] Assays were conducted as described in FIG. 4A. […] The labeled samples were solubilized with RIPA buffer. Biotinylated proteins were captured with streptavidin-agarose and probed by immunoblotting using antibodies against biotin, PS1-CTF, PS1-NTF, Nicastrin, PEN-2 and APH-1a. HeLa cell membrane proteins were directly loaded onto lanes indicated by an arrow in the PEN-2 and APH-1a blots as positive controls. […] Upper panel: PS1-NTF; Lower panel: PS1-CTF.\nThe labeled proteins were eluted with 2×SDS sample buffer and analyzed with Western blotting using antibodies against the components of γ-secretase complex. Protein concentration was determined with the Dc protein assay kit (Bio-Rad)\nAfter the photolyzed membranes were solubilized, biotinylated proteins were captured, eluted and analyzed by western blotting with antibodies against biotin, PS1, nicastrin, PEN-2 and APH-1."}, "γ-secretase [2]": {"biological_target": "γ-secretase (Homo sapiens (Human), UniProt P49768)", "experiment": "HTRF γ-secretase assay with Sb4 substrate", "format": "biochemical", "source_text": "We set out to transfer the assay conditions obtained with the ECL method to an HTRF detection based format (FIG. 10b). The HTRF detection mixture consisted of mouse G2-10 antibody for recognition of the C-terminal epitope of the cleaved product, a Europium-labeled anti-mouse antibody (commonly, an antibody is conjugated with a cryptate ligand that forms a three dimensional coordination cage structure surrounding a lanthanide such as Eu^3+), along with Streptavidin conjugated to a trimeric form of the fluorescent protein allophycocyanin referred to as XL665. Cleavage of Sb4 substrate allows G2-10 mouse antibody to bind to the Aβ40-processed site on the cleaved substrate. The Steptavidin-XL665 conjugate binds directly with the biotin moiety on the N-terminal end of the Sb4 derived product. The anti-mouse Europium antibody targets to the G2-10 antibody, bringing all of these entities into close proximity. The Europium and XL665 reagents are a compatible pair of donor-acceptor fluorophores, and excitation of Europium at 337 nm results in fluorescence energy resonance transfer (FRET) to XL665 which fluoresces at 665 nm (FIG. 10b).\nHuman γ-secretase was prepared from HeLa cell membranes as described previously (Li et al., 2000). Briefly, HeLa cell pellet was resuspended in 1×MES buffer (50 mM MES, pH 6.0, 150 mM KCl, 5 mM CaCl2, 5 mM MgCl2) and treated with ‘complete’ protease inhibitor (Boehringer Mannheim). The resuspended pellet was mechanically homogenized by passing the cells through the French Press (Spectronic Instruments), and subsequently spun down at 800 g to remove cell debris and nuclei. Next, the supernatants were spun at 100,000 g in order to pellet the membranes. The pelleted membranes were resuspended in 1×MES buffer to approximately 12 mg/ml. This entire procedure was performed at 4° C. HeLa membranes were solubilized using 1% CHAPSO detergent in 1×MES buffer with protease inhibitors. After incubating for 1 hr at 4° C., the membrane was spun down at 100,000 g and the supernatants were collected and stored at −70° C. The collected fraction is defined as solubilized γ-secretase.\nHTRF conditions were initially optimized in a 384-well format using a final volume of 20 μl. The high control for this assay was defined as the observed γ-secretase activity in the presence of 1% DMSO (v/v) and the low control as the activity observed when including 100 nM final concentration of Compound E (v/v). First, we determined a tolerable DMSO concentration that would not interfere with γ-secretase activity. Even with 3% DMSO (v/v) present in the assay mixture, there was virtually no effect on the γ-secretase activity (FIG. 11a), which was critical as delivery of library screening compounds required a final concentration of 2% DMSO (v/v) in the γ-secretase reaction. Next, we titrated the HTRF mixture components in an effort to minimize reagent costs for use in high throughput screening. […] Additionally, we varied Europium conjugated anti-mouse antibody and determined that 1 nM of this reagent in the HTRF mixture was sufficient for our assay conditions even though the signal continued to increase with higher concentrations of the anti-mouse antibody (FIG. 11c).\nWe have further miniaturized the HTRF assay from the established 384-well format to a 1536-well platform enabling more efficient screening of large chemical libraries. […] Based on these optimization experiments, we set our final assay conditions at 0.3 nM G2-10, 1 nM anti-mouse antibody, 15 nM Streptavidin-XL665, and proceeded with the assay at 10 μl final volume (5 μl γ-secretase mix+5 μl HTRF mix) in the 1536-well format for screening.\nThe pilot assay was performed in duplicate on two separate days to account for any day-to-day variability. […]"}, "A20 mouse lymphoma cells": {"tested_on": "A20 mouse lymphoma cells", "experiment": "Lymphoma cell proliferation assay, [3H]thymidine incorporation", "format": "cell-based", "conditions": "48 hours", "procedure": "For a lymphoma cell proliferation assay, A20 mouse lymphoma cells were seeded in a 96-well plate at a concentration of 5×10^5 cells/ml in 100 μl RPMI media containing 2% fetal bovine serum. An additional 100 μl of media containing DMSO or γ-secretase inhibitor was added and incubated for 48 hours at 37° C. After this incubation, the cells were incubated for 5 hours with 2 μCi/ml [^3H]thymidine at 37° C. Proliferative response was then evaluated by harvesting the tritiated DNA from cells using a Skatron cell harvester and proliferation assessed as a function of [^3H]thymidine incorporation measured on a β-counter."}},
  "data": [
    {"smiles": "CC(NC(=O)Cc1cc(F)cc(F)c1)C(=O)NC1N=C(c2ccccc2)c2ccccc2N(C)C1=O", "note": "(stereo not drawn) [Compound E]", "values": [
      {"measurement": "block of photo-crosslinking of PS1-CTF and PS1-NTF by Aβ17-23BPA20-biotin", "setting": "γ-secretase [1]", "value": "completely blocked"},
      {"measurement": "IC50", "setting": "γ-secretase [2]", "value": 1.1, "unit": "nM"},
      {"measurement": "inhibition of cellular proliferation", "setting": "A20 mouse lymphoma cells", "value": "able to inhibit cellular proliferation"}
    ]}
  ]
}
